Tests used:
Assay in all cases: KinaseProfiler Assay
[1] = target: T1, MuSK(h) (Homo sapiens, UniProt O15146)
T1 sequence (O15146 24-869): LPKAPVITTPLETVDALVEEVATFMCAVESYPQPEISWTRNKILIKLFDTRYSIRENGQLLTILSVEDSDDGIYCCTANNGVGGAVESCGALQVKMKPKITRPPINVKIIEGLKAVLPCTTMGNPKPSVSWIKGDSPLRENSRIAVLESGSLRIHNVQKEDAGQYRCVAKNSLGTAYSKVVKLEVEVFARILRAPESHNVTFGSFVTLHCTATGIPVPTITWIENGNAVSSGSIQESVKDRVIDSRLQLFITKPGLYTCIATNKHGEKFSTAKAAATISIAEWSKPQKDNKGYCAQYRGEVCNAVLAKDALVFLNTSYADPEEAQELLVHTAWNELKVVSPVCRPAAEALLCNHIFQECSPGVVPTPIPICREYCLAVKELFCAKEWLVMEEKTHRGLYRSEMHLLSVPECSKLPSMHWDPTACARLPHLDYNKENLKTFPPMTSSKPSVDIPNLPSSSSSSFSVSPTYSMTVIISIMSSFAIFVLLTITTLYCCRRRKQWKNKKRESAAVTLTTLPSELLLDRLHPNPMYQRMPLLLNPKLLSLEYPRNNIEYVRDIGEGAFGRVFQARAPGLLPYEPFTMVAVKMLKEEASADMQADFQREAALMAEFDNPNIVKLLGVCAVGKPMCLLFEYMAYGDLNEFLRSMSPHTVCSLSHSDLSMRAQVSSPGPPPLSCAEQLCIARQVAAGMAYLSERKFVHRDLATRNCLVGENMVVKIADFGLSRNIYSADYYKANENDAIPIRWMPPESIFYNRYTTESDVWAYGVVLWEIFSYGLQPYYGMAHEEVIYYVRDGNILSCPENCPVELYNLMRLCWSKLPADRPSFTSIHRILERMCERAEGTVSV

[2] = target: SRPK2(h) (Homo sapiens, UniProt P78362)
[3] = target: PI 3-Kinaseδ(h)
[4] = target: PKBγ(h) (Homo sapiens, UniProt Q9Y243)
[5] = target: ACK1(h) (Homo sapiens, UniProt Q07912)
[6] = target: JNK3(h) (Homo sapiens, UniProt P53779)
[7] = target: T2, Flt3(D835Y)(h) (Homo sapiens, UniProt P36888, D835Y)
T2 sequence (P36888 27-993 D835Y): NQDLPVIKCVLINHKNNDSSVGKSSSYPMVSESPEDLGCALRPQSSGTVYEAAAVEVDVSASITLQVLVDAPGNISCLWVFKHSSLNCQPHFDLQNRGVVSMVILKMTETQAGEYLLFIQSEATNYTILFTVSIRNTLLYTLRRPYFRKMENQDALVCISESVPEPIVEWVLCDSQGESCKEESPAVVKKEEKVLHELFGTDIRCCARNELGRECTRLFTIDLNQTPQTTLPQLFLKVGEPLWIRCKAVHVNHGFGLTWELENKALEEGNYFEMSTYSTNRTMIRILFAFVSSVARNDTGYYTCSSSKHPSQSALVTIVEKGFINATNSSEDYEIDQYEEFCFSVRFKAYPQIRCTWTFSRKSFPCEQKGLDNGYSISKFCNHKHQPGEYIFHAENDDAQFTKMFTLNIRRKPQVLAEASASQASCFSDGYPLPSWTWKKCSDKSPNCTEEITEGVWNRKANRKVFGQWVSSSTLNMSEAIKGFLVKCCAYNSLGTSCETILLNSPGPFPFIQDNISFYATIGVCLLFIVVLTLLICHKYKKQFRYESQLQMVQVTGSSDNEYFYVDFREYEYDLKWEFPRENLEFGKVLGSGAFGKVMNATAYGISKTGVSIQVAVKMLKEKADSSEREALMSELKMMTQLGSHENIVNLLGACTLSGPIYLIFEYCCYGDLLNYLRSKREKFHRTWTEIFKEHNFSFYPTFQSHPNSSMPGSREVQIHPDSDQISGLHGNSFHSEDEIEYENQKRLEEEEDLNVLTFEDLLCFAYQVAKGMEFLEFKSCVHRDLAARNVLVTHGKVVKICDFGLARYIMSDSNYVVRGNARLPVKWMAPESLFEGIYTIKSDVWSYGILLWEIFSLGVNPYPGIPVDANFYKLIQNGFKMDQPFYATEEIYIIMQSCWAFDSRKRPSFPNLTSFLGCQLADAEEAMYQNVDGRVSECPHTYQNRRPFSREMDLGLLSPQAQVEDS

Sequence of SRPK2(h) (P78362 whole entry): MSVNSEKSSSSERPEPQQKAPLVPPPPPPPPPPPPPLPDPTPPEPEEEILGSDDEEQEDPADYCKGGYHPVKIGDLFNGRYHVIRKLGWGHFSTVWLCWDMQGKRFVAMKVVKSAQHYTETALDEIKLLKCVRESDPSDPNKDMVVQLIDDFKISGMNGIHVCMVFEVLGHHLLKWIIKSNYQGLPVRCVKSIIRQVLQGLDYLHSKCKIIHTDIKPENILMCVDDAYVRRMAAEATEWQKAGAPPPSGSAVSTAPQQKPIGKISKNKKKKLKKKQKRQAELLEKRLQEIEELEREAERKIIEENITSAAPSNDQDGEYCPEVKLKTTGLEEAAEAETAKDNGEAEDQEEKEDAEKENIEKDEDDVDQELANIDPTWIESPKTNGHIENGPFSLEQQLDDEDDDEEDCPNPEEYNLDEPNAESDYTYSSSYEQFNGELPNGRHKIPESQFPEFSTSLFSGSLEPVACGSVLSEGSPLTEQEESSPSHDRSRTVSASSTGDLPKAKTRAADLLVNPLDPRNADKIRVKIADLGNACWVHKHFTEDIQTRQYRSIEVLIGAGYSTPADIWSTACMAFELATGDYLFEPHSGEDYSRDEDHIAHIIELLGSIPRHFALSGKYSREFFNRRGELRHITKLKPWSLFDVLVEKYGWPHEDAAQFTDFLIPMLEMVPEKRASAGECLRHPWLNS
Sequence of JNK3(h) (P53779 whole entry): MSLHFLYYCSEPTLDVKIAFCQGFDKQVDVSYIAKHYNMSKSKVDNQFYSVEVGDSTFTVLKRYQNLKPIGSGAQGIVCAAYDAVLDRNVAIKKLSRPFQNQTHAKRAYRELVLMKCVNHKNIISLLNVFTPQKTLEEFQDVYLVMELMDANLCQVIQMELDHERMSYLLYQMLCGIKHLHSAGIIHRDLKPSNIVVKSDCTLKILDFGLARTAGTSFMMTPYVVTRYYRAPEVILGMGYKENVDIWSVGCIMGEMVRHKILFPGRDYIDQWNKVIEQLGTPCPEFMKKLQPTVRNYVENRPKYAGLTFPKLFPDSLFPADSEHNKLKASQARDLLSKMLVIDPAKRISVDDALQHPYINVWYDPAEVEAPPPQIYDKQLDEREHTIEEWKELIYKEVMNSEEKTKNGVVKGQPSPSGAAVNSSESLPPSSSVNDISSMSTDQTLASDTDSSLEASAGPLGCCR
Sequence of ACK1(h) (Q07912 whole entry): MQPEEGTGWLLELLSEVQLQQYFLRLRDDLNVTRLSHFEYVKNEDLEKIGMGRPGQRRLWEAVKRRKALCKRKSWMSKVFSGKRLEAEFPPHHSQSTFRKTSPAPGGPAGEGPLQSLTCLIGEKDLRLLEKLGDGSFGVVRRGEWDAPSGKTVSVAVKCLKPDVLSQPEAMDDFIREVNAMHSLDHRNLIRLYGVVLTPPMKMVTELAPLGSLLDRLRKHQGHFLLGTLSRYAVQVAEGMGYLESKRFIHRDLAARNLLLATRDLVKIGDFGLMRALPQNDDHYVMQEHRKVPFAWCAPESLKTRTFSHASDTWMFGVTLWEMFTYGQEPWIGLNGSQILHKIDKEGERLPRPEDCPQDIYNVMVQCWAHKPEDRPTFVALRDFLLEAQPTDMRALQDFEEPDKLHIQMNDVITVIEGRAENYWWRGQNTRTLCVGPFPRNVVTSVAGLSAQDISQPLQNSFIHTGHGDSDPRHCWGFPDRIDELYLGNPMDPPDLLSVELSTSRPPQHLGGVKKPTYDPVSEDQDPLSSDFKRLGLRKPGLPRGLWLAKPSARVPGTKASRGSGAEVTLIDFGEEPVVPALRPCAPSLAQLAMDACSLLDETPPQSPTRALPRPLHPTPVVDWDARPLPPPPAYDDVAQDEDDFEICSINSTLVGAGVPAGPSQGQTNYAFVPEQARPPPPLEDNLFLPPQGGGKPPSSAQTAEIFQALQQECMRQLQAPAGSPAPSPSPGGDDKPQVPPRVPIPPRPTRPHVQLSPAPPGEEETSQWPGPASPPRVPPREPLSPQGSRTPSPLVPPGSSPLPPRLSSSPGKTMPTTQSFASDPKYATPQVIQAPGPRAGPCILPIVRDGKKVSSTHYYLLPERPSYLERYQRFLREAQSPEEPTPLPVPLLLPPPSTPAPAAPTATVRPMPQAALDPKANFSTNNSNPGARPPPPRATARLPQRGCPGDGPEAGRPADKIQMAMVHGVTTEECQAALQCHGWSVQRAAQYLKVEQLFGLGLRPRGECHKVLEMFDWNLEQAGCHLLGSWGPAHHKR
Sequence of PKBγ(h) (Q9Y243 whole entry): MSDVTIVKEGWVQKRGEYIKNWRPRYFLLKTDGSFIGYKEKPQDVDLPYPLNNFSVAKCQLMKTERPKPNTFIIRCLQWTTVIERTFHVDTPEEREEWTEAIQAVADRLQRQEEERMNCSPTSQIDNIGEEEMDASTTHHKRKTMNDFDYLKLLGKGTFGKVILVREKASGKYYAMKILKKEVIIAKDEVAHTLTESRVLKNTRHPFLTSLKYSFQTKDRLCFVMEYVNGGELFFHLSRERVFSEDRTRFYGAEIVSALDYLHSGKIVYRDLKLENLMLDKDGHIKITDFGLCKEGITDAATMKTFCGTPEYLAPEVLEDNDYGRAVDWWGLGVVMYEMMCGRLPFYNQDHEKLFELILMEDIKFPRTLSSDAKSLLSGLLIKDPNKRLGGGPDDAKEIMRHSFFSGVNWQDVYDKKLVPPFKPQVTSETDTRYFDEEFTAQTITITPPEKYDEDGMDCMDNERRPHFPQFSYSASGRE

## CC(C)CCC(=O)[C@]1(O)C(O)=C(C(=O)C(C)C)C(=O)[C@H]1CCC(C)C [TH2, tetrahydroiso-cohumulone]
[1]; 1 μg/ml
  kinase inhibition: 104% of control
[1]; 5 μg/ml
  kinase inhibition: 101% of control
[1]; 25 μg/ml
  kinase inhibition: 99% of control
[1]; 50 μg/ml
  kinase inhibition: 98% of control
[1]; 100 μg/ml
  kinase inhibition: 97% of control
[2]; 1 μg/ml
  kinase inhibition: 105% of control
[2]; 5 μg/ml
  kinase inhibition: 104% of control
[2]; 25 μg/ml
  kinase inhibition: 99% of control
[2]; 50 μg/ml
  kinase inhibition: 91% of control
[2]; 100 μg/ml
  kinase inhibition: 88% of control
[3]; 1 μg/ml
  kinase inhibition: 95% of control
[3]; 5 μg/ml
  kinase inhibition: 100% of control
[3]; 25 μg/ml
  kinase inhibition: 72% of control
[3]; 50 μg/ml
  kinase inhibition: 42% of control
[3]; 100 μg/ml
  kinase inhibition: 19% of control
[4]; 1 μg/ml
  kinase inhibition: 112% of control
[4]; 5 μg/ml
  kinase inhibition: 110% of control
[4]; 25 μg/ml
  kinase inhibition: 107% of control
[4]; 50 μg/ml
  kinase inhibition: 97% of control
[4]; 100 μg/ml
  kinase inhibition: 83% of control
[5]; 1 μg/ml
  kinase inhibition: 117% of control
[5]; 5 μg/ml
  kinase inhibition: 124% of control
[5]; 25 μg/ml
  kinase inhibition: 97% of control
[5]; 50 μg/ml
  kinase inhibition: 86% of control
[5]; 100 μg/ml
  kinase inhibition: 81% of control
[6]; 1 μg/ml
  kinase inhibition: 110% of control
[6]; 5 μg/ml
  kinase inhibition: 108% of control
[6]; 25 μg/ml
  kinase inhibition: 80% of control
[6]; 50 μg/ml
  kinase inhibition: 92% of control
[6]; 100 μg/ml
  kinase inhibition: 88% of control
[7]; 1 μg/ml
  kinase inhibition: 108% of control
[7]; 5 μg/ml
  kinase inhibition: 116% of control
[7]; 25 μg/ml
  kinase inhibition: 102% of control
[7]; 50 μg/ml
  kinase inhibition: 105% of control
[7]; 100 μg/ml
  kinase inhibition: 98% of control

— patent US20100137449A1, “SUBSTITUTED 1,3-CYCLOPENTADIONE MULTI-TARGET PROTEIN KINASE MODULATORS OF CANCER, ANGIOGENESIS AND THE INFLAMMATORY PATHWAYS ASSOCIATED THEREWITH” (METAPROTEOMICS, LLC, priority 2007, published 2010)
